This is an account of results in patent US9181264B2, “Fused heteroaryls and their uses” (Hutchison MediPharma Limited, priority 2011, dated 2015).

By IC50 is commonly meant the point on the concentration scale where inhibition reaches its midpoint.

Where only a bound is given, the exact number is not on record here.

This experiment addresses T1, PI3Kα kinase (Homo sapiens, UniProt P42336).
T1 construct: purchased Invitrogen PV4788
The experiment in a line: PI3Ka Transcreener ADP assay (fluorescence polarization). It counts as biochemical. As to conditions: 10 μM ATP, 30 μmol/L lipid substrate; read-out: IC50, inhibition of PI3Kα kinase. As for the experimental part:
Fluorescence polarization was used in this assay. The final conditions for kinase assay are 10 μM of ATP, 0.2 ng/μL of PI3Kα kinase, 30 μmol/L of lipid substrate and assay buffer (50 mmol/L of HEPES (pH 7.5), 100 mmol/L of NaCl, 1 mmol/L of EGTA, 3 mmol/L of MgCl2, 1 mmol/L of DTT and 0.03% CHAPS and 2% DMSO).
5 μL of test compounds in 10% DMSO and 10 μL of 0.5 ng/μL PI3K kinase (Invitrogen, PV4788) in assay buffer are put into a 96-well plate (Greiner, Cat. 675076), and then the reaction is started by the addition of 10 μL of 75 μmol/L PIP2, (PS Lipid Substrate Invitrogen, PV5100), and 25 μmol/L ATP mixture. After the mixture is incubated for 60 minutes at room temperature, 25 μL of transcreener Kinase Kit reagent—ADP Detection Mix—(Bellbrook Labs) is added, and the reaction is continued for an additional 1.5 hours. At the end, the plate is read in a Tecan Infinite F500 at excitation of 610 nm and emission of 670 nm.
A standard curve for ADP is obtained in a parallel way by replacing compound and PI3Kα kinase with DMSO and assay buffer, respectively. Different concentration of ADP, 0-10 μM, and ATP, 10-0 μM (ATP+ADP equal to 10 μM) are applied instead of a fixed concentration of ATP in this standard curve assay. Other conditions are the same as described above. The standard curve is plotted using Origin 8.0 software. The inhibition of test compound on ADP production is calculated based on ADP concentration from standard curve. IC50 is obtained using XLfit 2.0 software.
A general note: Fluorescence polarisation rises when a labelled molecule tumbles more slowly, as on binding a larger partner.

T1 sequence (P42336 whole entry): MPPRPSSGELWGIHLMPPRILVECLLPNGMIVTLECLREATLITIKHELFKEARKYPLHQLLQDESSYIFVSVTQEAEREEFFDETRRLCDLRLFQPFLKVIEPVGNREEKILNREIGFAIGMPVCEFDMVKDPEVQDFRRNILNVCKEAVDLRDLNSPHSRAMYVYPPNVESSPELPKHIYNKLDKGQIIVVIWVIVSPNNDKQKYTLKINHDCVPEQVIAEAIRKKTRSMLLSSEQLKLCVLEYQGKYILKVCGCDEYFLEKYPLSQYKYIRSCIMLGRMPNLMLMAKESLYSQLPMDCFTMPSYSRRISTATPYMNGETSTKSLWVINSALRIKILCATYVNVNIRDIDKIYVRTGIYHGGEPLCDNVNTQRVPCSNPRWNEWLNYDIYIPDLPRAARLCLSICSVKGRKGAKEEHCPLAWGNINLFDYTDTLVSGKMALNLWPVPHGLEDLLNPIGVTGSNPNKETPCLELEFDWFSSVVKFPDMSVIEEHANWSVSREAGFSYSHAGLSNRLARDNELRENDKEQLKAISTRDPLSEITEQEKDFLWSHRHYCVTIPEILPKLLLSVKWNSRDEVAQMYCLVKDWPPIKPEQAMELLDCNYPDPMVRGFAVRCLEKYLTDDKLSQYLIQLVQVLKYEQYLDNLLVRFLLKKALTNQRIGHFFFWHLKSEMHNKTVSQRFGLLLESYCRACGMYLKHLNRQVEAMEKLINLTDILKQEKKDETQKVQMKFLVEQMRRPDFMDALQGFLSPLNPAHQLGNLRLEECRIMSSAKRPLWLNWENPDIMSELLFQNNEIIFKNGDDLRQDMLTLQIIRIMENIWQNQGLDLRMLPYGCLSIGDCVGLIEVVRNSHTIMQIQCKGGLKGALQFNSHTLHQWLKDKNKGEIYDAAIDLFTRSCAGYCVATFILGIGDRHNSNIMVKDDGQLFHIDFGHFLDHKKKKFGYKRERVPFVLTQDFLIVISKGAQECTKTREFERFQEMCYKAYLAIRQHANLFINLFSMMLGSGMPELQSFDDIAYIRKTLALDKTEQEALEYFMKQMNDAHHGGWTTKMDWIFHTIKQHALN
T1 sequence (P27986 whole entry partner): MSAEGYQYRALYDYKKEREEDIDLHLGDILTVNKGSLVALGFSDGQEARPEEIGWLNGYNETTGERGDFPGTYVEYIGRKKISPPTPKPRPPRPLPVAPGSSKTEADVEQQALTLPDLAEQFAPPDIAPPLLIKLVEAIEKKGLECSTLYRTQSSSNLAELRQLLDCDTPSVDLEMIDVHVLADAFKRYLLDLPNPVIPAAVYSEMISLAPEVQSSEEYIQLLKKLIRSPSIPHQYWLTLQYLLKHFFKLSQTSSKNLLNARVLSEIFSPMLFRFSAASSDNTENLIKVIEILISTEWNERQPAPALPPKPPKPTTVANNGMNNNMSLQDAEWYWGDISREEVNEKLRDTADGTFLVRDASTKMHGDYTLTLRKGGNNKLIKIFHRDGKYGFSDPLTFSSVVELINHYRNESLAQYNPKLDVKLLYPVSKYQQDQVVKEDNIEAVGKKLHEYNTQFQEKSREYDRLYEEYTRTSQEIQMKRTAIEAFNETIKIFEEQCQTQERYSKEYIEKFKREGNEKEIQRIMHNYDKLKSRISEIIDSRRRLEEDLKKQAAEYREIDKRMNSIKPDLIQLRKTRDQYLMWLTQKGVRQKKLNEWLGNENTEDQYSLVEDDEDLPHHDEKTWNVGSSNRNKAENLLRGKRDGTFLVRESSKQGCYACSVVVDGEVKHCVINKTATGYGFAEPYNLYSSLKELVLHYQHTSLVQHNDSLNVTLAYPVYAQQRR

As to `Cc1ccc(-c2ccc3ncc4nnn(C5CCN(C(=O)[C@H](C)O)CC5)c4c3n2)cn1` [Compound 2], the IC50 is less than 100 nM.
As for `Cc1cc(-c2ccc3ncc4nnn(C5CCN(C(=O)[C@H](C)O)CC5)c4c3n2)cnc1N` [Compound 3], the figure is less than 100 nM; as for `COc1ccc(-c2ccc3ncc4nnn(C5CCN(C(=O)[C@H](C)O)CC5)c4c3n2)cn1` [Compound 5], less than 100 nM.
Under `C[C@H](O)C(=O)N1CCC(n2nnc3cnc4ccc(-c5cnc6[nH]ccc6c5)nc4c32)CC1` [Compound 8] stands less than 100 nM.
As for `Nc1ncc(-c2ccc3ncc4nnn(C5CCN(C(=O)C6CC6)CC5)c4c3n2)cc1F` [Compound 11], the figure is less than 100 nM.
Turning to `Nc1ncc(-c2ccc3ncc4nnn(-c5cccc(Cl)c5)c4c3c2)cn1` [Compound 13], the IC50 was less than 100 nM.
For `CC(=O)N1CCC(n2nnc3cnc4ccc(-c5cnc(N)c(C(F)(F)F)c5)cc4c32)CC1` [Compound 15], the IC50 is less than 100 nM.
For `CC(C)(C#N)c1ccc(-n2nnc3cnc4ccc(-c5cnc(N)nc5)nc4c32)cc1` [Compound 18], the IC50 is less than 100 nM.
On to `Nc1ncc(-c2ccc3ncc4nnn(C5CCN(CC6CC6)CC5)c4c3n2)cc1C(F)(F)F` [Compound 20], for which the IC50 is less than 100 nM.
As for `Cc1cc(-c2ccc3ncc4nnn(C5CCN(C(=O)[C@@H](C)O)CC5)c4c3n2)cnc1N` [Compound 22], the figure is less than 100 nM.
Consider `C[C@H](O)C(=O)N1CCC(n2nnc3cnc4ccc(-c5cnc(N)c(C(F)(F)F)c5)cc4c32)CC1` [Compound 23], for which the IC50 was less than 100 nM.
Under `C[C@@H](O)C(=O)N1CCC(n2nnc3cnc4ccc(-c5cnc(N)c(C(F)(F)F)c5)cc4c32)CC1` [Compound 24] stands less than 100 nM; under `C=CC(=O)N1CCC(n2nnc3cnc4ccc(-c5cnc(N)c(C(F)(F)F)c5)nc4c32)CC1` [Compound 28], less than 100 nM; under `C=CC(=O)N1CCC(n2nnc3cnc4ccc(-c5cnc(N)c(C)c5)nc4c32)CC1` [Compound 29], less than 100 nM.
As for `CC(C)C(=O)N1CCC(n2nnc3cnc4ccc(-c5cnc(N)c(F)c5)nc4c32)CC1` [Compound 31], the IC50 is less than 100 nM.
Regarding `CN1CCC(C(=O)N2CCC(n3nnc4cnc5ccc(-c6cnc(N)c(C(F)(F)F)c6)nc5c43)CC2)CC1` [Compound 36], the IC50 is less than 100 nM.
Under `CCCCC(=O)N1CCC(n2nnc3cnc4ccc(-c5cnc(N)c(C(F)(F)F)c5)nc4c32)CC1` [Compound 37] stands less than 100 nM.
Under `Nc1ncc(-c2ccc3ncc4nnn(C5CCN(C(=O)CC6CC6)CC5)c4c3n2)cc1C(F)(F)F` [Compound 38] stands less than 100 nM.
Under `Nc1ncc(-c2ccc3ncc4nnn(C5CCN(C(=O)C6(O)CC6)CC5)c4c3n2)cc1C(F)(F)F` [Compound 39] stands less than 100 nM; under `Nc1ncc(-c2ccc3ncc4nnn(C5CCN(C(=O)c6ccccn6)CC5)c4c3n2)cc1C(F)(F)F` [Compound 40], less than 100 nM.
`Nc1ncc(-c2ccc3ncc4nnn(C5CCN(C(=O)c6ccccc6)CC5)c4c3n2)cc1C(F)(F)F` [Compound 41]: the IC50 was less than 100 nM.
As for `Nc1ncc(-c2ccc3ncc4nnn(C5CCN(Cc6ccccn6)CC5)c4c3n2)cc1C(F)(F)F` [Compound 47], the figure is less than 100 nM.
Take `Nc1ncc(-c2ccc3ncc4nnn(C5CCN(CC6CCOCC6)CC5)c4c3n2)cc1C(F)(F)F` [Compound 48, 5-(1-(1-((tetrahydro-2H-pyran-4-yl)methyl)piperidin-4-yl)-1H-[1,2,3]triazolo[4,5-c][1,5]naphthyridin-8-yl)-3-(trifluoromethyl)pyridin-2-amine]: the half-maximal inhibitory concentration (IC50) was less than 100 nM.
As to `CC(C)(C#N)c1ccc(-c2nnc3cnc4ccc(-c5cnc(N)c(C(F)(F)F)c5)cc4n23)cn1` [Compound 54], the IC50 was less than 100 nM.
Under `Cc1cc(-c2ccc3ncc4nnc(-c5ccc(C(C)(C)C#N)nc5)n4c3c2)cnc1N` [Compound 57] stands less than 100 nM; under `Nc1ncc(-c2ccc3ncc4nnc(-c5ccc(F)cn5)n4c3c2)cc1C(F)(F)F` [Compound 59], less than 100 nM.
As for `Nc1nc2ccc(-c3ccc4ncc5nnc(-c6ccc(F)cn6)n5c4c3)cc2s1` [Compound 60], the figure is less than 100 nM.
Under `CC(C)(C#N)c1ccc(-c2nnc3cnc4ccc(-c5ccc6[nH]ncc6c5)cc4n23)cc1` [Compound 61] stands less than 100 nM.
Turning to `N#Cc1cccc(-c2nnc3cnc4ccc(-c5cnc(N)c(C(F)(F)F)c5)cc4n23)c1` [Compound 62], the IC50 is less than 100 nM.
As for `N#Cc1ccc(-c2nnc3cnc4ccc(-c5cnc(N)c(C(F)(F)F)c5)cc4n23)cc1` [Compound 64], the figure is less than 100 nM; as for `Cc1ccc(-c2nnc3cnc4ccc(-c5cnc(N)c(C(F)(F)F)c5)cc4n23)cn1` [Compound 65], less than 100 nM.
Under `CC(C)(C#N)c1ccc(-c2nnc3cnc4ccc(-c5ccc6nc(N)oc6c5)cc4n23)cn1` [Compound 67] stands less than 100 nM; under `CC(C)(C#N)C(=O)c1ccc(-c2nnc3cnc4ccc(-c5cnc(N)c(C(F)(F)F)c5)cc4n23)cc1` [Compound 68], less than 100 nM.
Consider `CC(C)(C#N)c1ccc(-c2nnc3cnc4ccc(-c5cnc6[nH]ccc6c5)cc4n23)cc1` [Compound 69], for which the IC50 was less than 100 nM.
Under `Nc1ncc(-c2ccc3ncc4nnc(-c5ccc(F)cc5)n4c3c2)cc1C(F)(F)F` [Compound 70] stands less than 100 nM.
As for `CS(=O)(=O)c1ccc(-c2nnc3cnc4ccc(-c5cnc(N)c(C(F)(F)F)c5)cc4n23)cc1` [Compound 71], the figure is less than 100 nM.
On to `N#Cc1ccc(-c2nnc3cnc4ccc(-c5ccc6nc(N)sc6c5)cc4n23)nc1` [Compound 73], for which the IC50 is less than 100 nM.
Consider `COc1ncc(-c2ccc3ncc4nnc(-c5ccc(C(C)(C)C#N)cc5)n4c3c2)cc1N` [Compound 74], for which the IC50 was less than 100 nM.
With `COc1cc(-c2ccc3ncc4nnc(-c5ccc(C(C)(C)C#N)cc5)n4c3c2)cnc1OC` [Compound 76], the IC50 was less than 100 nM.
Under `CC(C)(C#N)c1ccc(-c2nnc3cnc4ccc(-c5cnc(N)c(Cl)c5)cc4n23)cc1` [Compound 77] stands less than 100 nM.
`C[C@H](O)C(=O)N1CCC(c2nnc3cnc4ccc(-c5cnc(N)c(C(F)(F)F)c5)cc4n23)CC1` [Compound 79, (S)-1-(4-(8-(6-amino-5-(trifluoromethyl)pyridin-3-yl)-[1,2,4]triazolo[4,3-a]quinoxalin-1-yl)piperidin-1-yl)-2-hydroxypropan-1-one]: the half-maximal inhibitory concentration (IC50) was less than 100 nM.
Under `C[C@H](O)C(=O)N1CCC(c2nnc3cnc4ccc(-c5ccc6nc(N)sc6c5)cc4n23)CC1` [Compound 80] stands less than 100 nM; under `C[C@@H](O)C(=O)N1CCC(c2nnc3cnc4ccc(-c5ccc6nc(N)sc6c5)cc4n23)CC1` [Compound 81], less than 100 nM; under `CC(=O)N1CCC(Cc2nnc3cnc4ccc(-c5cnc(N)c(C(F)(F)F)c5)cc4n23)CC1` [Compound 82], less than 100 nM.
Take `CC(=O)N1CCC(Cc2nnc3cnc4ccc(-c5ccc6nc(N)sc6c5)cc4n23)CC1` [Compound 83]: the IC50 is less than 100 nM.
Under `CC(=O)N1CCCC(c2nnc3cnc4ccc(-c5ccc6nc(N)sc6c5)cc4n23)C1` (stereo not shown) [Compound 84] stands less than 100 nM; under `Nc1ncc(-c2ccc3ncc4nnc(C5CCC(O)CC5)n4c3c2)cc1C(F)(F)F` (stereo not shown) [Compound 85], less than 100 nM; under `Nc1ncc(-c2ccc3ncc4nnc(CN5CCCC5)n4c3c2)cc1C(F)(F)F` [Compound 87], less than 100 nM.
Turning to `CC(C)(C#N)c1ccc(-n2cnc3cnc4ccc(-c5cnc(N)c(C(F)(F)F)c5)nc4c32)cn1` [Compound 89], the IC50 is less than 100 nM.
As for `Cc1cc(-c2ccc3ncc4ncn(-c5ccc(C(C)(C)C#N)nc5)c4c3n2)cnc1N` [Compound 90], the figure is less than 100 nM.
With `COc1cc(-c2ccc3ncc4ncn(-c5ccc(C(C)(C)C#N)nc5)c4c3n2)cnc1OC` [Compound 92], the IC50 is less than 100 nM.
As for `CC(C)(C#N)c1ccc(-n2cnc3cnc4ccc(-c5cnc(N)nc5)nc4c32)cn1` [Compound 94], the figure is less than 100 nM; as for `COc1cc(-c2ccc3ncc4ncn(-c5ccc(C(C)(C)C#N)nc5)c4c3n2)cnc1N` [Compound 95], less than 100 nM.
Turning to `Nc1ncc(-c2ccc3ncc4ncn(C5CCN(CC(=O)N6CCOCC6)CC5)c4c3n2)cc1C(F)(F)F` [Compound 97], the IC50 is less than 100 nM.
In the case of `COc1cc(-c2ccc3ncc4ncn(C5CCN(CC(=O)N(C)C)CC5)c4c3n2)cnc1OC` [Compound 99], the IC50 is less than 100 nM.
Under `Cc1ccc(-c2ccc3ncc4ncn(C5CCN(CC(=O)N(C)C)CC5)c4c3n2)cn1` [Compound 100] stands less than 100 nM; under `CCNC(=O)N1CCC(n2cnc3cnc4ccc(-c5cnc(N)c(C(F)(F)F)c5)nc4c32)CC1` [Compound 101], less than 100 nM; under `CC(C)(C#N)c1ccc(-n2cnc3cnc4ccc(-c5cnc(N)c(C(F)(F)F)c5)nc4c32)cc1` [Compound 104], less than 100 nM.
